Source: US20100184815A1 (priority 2008, published 2010)

Columns and labels:
Format in all cases: cell-based
[1] = target: T1, Gal-4 hPPARα (Homo sapiens, UniProt Q07869); experiment: Gal4-hPPARα transient transfection reporter assay in Cos cells; details: luciferase reporter, 24 hours with compound, scale 1-5, read-out: Gal-4 hPPAR α EC50 (scaled number)
T1 construct: Plasmids pGal4-hPPARα, pGal4-hPPARγ, pGal4-hPPARδ and pG5-TK-pGL3 were constructed as previously described by Staels, Bart, et al., Nature 1998 Jun; 25
T1 sequence (Q07869 200-468 limits assumed): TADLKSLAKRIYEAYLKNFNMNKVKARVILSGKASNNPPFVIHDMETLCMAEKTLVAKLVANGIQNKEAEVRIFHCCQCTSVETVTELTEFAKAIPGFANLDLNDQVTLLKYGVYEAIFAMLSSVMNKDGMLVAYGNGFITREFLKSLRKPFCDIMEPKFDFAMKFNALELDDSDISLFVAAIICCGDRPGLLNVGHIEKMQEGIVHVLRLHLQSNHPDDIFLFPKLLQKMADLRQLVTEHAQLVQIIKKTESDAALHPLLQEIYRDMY
How it was run: (§1)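 Cos cells transiently co-transfected with Gal4-hPPAR expression plasmid, pG5-TK-pGL3 luciferase reporter and β-galactosidase control, then treated 24 h with increasing compound concentrations in DMEM containing 0.2% FCS. Luciferase normalised to β-galactosidase; EC50 from curve fit, at least three experiments.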

[2] = target: T2, Gal-4 hPPARγ (Homo sapiens, UniProt P37231); experiment: Gal4-hPPARγ transient transfection reporter assay in Cos cells; details: luciferase reporter, 24 hours with compound, scale 1-5, read-out: Gal-4 hPPAR γ EC50 (scaled number)
T2 construct: Plasmids pGal4-hPPARα, pGal4-hPPARγ, pGal4-hPPARδ and pG5-TK-pGL3 were constructed as previously described by Staels, Bart, et al., Nature 1998 Jun; 25
T2 sequence (P37231 238-505 limits assumed): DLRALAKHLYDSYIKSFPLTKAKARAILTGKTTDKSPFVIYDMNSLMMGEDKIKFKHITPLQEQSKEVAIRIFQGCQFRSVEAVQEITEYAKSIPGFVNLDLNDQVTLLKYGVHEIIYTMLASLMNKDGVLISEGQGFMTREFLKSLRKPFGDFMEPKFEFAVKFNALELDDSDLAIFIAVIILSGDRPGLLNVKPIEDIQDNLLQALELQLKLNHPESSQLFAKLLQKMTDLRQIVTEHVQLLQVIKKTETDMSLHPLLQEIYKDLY
How it was run: as §1

[3] = target: T3, Gal-4 hPPARβ/δ (Homo sapiens, UniProt Q03181); experiment: Gal4-hPPARδ transient transfection reporter assay in Cos cells; details: luciferase reporter, 24 hours with compound, scale 1-5, read-out: Gal-4 hPPAR β/δ EC50 (scaled number)
T3 construct: Plasmids pGal4-hPPARα, pGal4-hPPARγ, pGal4-hPPARδ and pG5-TK-pGL3 were constructed as previously described by Staels, Bart, et al., Nature 1998 Jun; 25
T3 sequence (Q03181 171-441 limits assumed): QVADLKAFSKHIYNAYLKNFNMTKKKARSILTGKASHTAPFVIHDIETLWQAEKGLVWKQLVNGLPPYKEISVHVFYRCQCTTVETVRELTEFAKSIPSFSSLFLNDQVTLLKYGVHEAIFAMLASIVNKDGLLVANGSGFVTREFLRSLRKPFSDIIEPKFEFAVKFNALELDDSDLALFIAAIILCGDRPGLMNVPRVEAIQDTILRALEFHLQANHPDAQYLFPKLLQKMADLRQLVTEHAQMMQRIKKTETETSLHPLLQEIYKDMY
How it was run: as §1

[4] = target: T4, Full Length hPPARα (Homo sapiens, UniProt Q07869); experiment: Full length hPPARα transfection assay; details: full length receptor; read-out: Full Length hPPAR α EC50 (scaled number)
T4 construct: Full Length; expressed in transfected cells; host or cells: Cos cells
T4 sequence (Q07869 1-468): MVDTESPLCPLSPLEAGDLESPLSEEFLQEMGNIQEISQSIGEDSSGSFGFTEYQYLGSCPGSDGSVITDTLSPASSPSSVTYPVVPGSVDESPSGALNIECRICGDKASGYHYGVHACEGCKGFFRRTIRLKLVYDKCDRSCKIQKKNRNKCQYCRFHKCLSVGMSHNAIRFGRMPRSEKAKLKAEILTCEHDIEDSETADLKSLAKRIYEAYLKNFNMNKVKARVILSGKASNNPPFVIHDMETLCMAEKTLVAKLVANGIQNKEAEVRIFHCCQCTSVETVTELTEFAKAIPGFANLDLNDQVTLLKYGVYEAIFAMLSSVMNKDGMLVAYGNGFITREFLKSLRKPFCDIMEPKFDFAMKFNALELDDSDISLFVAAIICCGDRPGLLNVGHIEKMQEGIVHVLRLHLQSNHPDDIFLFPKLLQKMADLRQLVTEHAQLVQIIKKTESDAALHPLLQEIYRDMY
Description: (§2) Transient transfection assays. Cos cells were seeded in 60-mm dishes at a density of 5.5×10^5 cells/dish in Dulbecco's modified Eagle's medium (DMEM) supplemented with 10% fetal calf serum (FCS) and incubated at 37° C. for 24 hours before transfection. Cells were transfected in Opti-MEM (Gibco; Invitrogen, Carlsbad, Calif.) without FCS for 3 hours at 37° C., using polyethylenimine, with reporter and expression plasmids. The plasmid pBluescript (Stratagene, La Jolla, Calif.) was used as carrier DNA to set the final amount of DNA to 5.5 μg/dish. The pCMV-b-galactosidase expression plasmid was cotransfected as a control for transfection efficiency. Transfection was stopped by the addition of DMEM supplemented with 10% FCS, and cells were then incubated at 37° C. After 16 hours, cells were trypsinized and seeded in 96-well plates at the density of 2×10^4 cells/well and incubated for 6 hours in 10% FCS-containing DMEM. Cells were then incubated for 24 hours in DMEM containing 0.2% FCS and increasing concentrations of the compound tested or vehicle (DMSO). At the end of the experiment, cells were washed once with ice-cold PBS, lysed and the luciferase and b-galactosidase assays were performed in a luminometer and spectrophotomer. Transfection efficiencies were normalized with the b-galactosidase activity assay. Half-maximal effective concentration (EC50) was estimated using Prism software (GraphPad). All transfection experiments were performed at least three times.
(§3) In the following tables, proprietary compound EC50 values for hPPAR α, β, δ and γ are shown. The EC50 value is the concentration of a drug that induces a response halfway between the baseline and maximum, and is commonly used as a measure of drug potency. EC50 values are reported on a scale of 1 through 5, wherein the value scale is defined for each receptor as follows: […]

[5] = target: T5, Full Length hPPARγ (Homo sapiens, UniProt P37231); experiment: Full length hPPARγ transfection assay; details: full length receptor; scale 1-5; read-out: Full Length hPPAR γ EC50 (scaled number)
T5 construct: Full Length; expressed in transfected cells; host or cells: Cos cells
T5 sequence (P37231 1-505): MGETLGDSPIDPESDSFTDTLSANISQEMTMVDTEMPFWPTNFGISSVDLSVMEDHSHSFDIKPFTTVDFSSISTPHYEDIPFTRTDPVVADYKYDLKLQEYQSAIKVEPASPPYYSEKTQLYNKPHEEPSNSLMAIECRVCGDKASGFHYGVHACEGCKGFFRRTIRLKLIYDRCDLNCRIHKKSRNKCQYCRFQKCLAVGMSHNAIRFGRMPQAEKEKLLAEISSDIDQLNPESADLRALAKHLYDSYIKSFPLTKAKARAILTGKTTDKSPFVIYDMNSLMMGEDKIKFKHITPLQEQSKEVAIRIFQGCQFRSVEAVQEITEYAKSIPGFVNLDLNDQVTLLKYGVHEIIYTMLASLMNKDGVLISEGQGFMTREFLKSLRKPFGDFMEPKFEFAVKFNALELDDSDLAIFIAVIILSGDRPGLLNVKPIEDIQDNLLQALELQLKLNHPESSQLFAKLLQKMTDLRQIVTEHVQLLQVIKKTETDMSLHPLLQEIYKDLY
Description: as §2, §3

[6] = target: T6, Full Length hPPARβ/δ (Homo sapiens, UniProt Q03181); experiment: Full length hPPARβ/δ transfection assay; details: full length receptor; scale 1-5; read-out: Full Length hPPAR β/δ EC50 (scaled number)
T6 construct: Full Length; expressed in transfected cells; host or cells: Cos cells
T6 sequence (Q03181 1-441): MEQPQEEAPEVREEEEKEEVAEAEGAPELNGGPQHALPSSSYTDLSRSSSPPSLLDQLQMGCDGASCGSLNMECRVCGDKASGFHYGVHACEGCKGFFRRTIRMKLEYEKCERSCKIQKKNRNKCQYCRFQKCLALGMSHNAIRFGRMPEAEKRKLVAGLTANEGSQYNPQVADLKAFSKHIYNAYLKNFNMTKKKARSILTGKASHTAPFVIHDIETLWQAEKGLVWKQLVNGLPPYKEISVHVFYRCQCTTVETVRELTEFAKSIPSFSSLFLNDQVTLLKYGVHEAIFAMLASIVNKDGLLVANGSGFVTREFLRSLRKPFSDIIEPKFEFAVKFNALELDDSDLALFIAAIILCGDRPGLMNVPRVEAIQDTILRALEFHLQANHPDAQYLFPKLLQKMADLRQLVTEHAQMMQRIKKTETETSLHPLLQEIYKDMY
Description: as §2, §3

Work on `Cn1nc(-c2ccccc2)cc1COC(=O)c1ccc(SC(C)(C)C(=O)O)cc1` [Compound 1, 2-methyl-2-(4-(((1-methyl-3-phenyl-1H-pyrazol-5-yl)methoxy)carbonyl)phenylthio)propanoic acid] yielded an EC50 [1] of 1 to 50 nM, an EC50 [2] greater than 1000 nM and an EC50 [3] greater than 1000 nM. For the same molecule, the EC50 [4] was less than 1 nM, the EC50 [5] was 51 to 200 nM and the EC50 [6] was greater than 1000 nM.
`CC(C)c1ccc(-n2cc(COC(=O)c3ccc(SC(C)(C)C(=O)O)cc3)nn2)cc1` [Compound 56, 2-(4-(((1-(4-isopropylphenyl)-1H-1,2,3-triazol-4-yl)methoxy)carbonyl)phenylthio)-2-methylpropanoic acid] gave an EC50 [1] of 51 to 200 nM, an EC50 [2] greater than 1000 nM and an EC50 [3] greater than 1000 nM. For the same molecule, the EC50 [4] was 1 to 50 nM and the EC50 [5] was 201 to 999 nM.
`CCCn1c(COC(=O)c2ccc(OC(C)(C)C(=O)O)cc2)nn(Cc2ccc(OC(F)(F)F)cc2)c1=O` [Compound 168, 2-methyl-2-(4-(((5-oxo-4-propyl-1-(4-(trifluoromethoxy)benzyl)-4,5-dihydro-1H-1,2,4-triazol-3-yl)methoxy)carbonyl)phenoxy)propanoic acid] was tested, and the EC50 [1] was 201 to 999 nM, the EC50 [2] was greater than 1000 nM and the EC50 [3] was greater than 1000 nM. The EC50 [4] was 51 to 200 nM and the EC50 [5] was greater than 1000 nM.
`CCCCCCn1c(COC(=O)c2ccc(OC(C)(C)C(=O)O)c(OC)c2)nn(Cc2ccc(C(C)(C)C)cc2)c1=O` [Compound 185, 2-(4-(((1-(4-tert-butylbenzyl)-4-hexyl-5-oxo-4,5-dihydro-1H-1,2,4-triazol-3-yl)methoxy)carbonyl)-2-methoxyphenoxy)-2-methylpropanoic acid] was tested, and the EC50 [1] was 1 to 50 nM, the EC50 [2] was greater than 1000 nM and the EC50 [3] was greater than 1000 nM. For the same molecule, the EC50 [4] was less than 1 nM.
`CCCCCCCn1c(COC(=O)c2ccc(OC(C)(C)C(=O)O)c(OC)c2)nn(Cc2ccc(C(C)(C)C)cc2)c1=O` [Compound 212, 2-(4-(((1-(4-tert-butylbenzyl)-4-heptyl-5-oxo-4,5-dihydro-1H-1,2,4-triazol-3-yl)methoxy)carbonyl)-2-methoxyphenoxy)-2-methylpropanoic acid] was tested, and the EC50 [1] was less than 1 nM, the EC50 [2] was 51 to 200 nM and the EC50 [3] was greater than 1000 nM. It also gave an EC50 [4] of less than 1 nM and an EC50 [5] of 51 to 200 nM.
